Columns and labels:
PON1 = PON1 (Homo sapiens, UniProt P27169); settings: cited from earlier work
[1] = tested on: alanine aminotransferase (ALAT); assay: ALAT elevation during longer-term treatment with ximelagatran (clinical trials); format: in vivo, human
Text: Phase III clinical trials have been performed using fixed doses of melagatran and ximelagatran for the prevention of VTE in hip or knee replacement surgery. In addition, clinical trials have been performed using ximelagatran for the treatment and long-term secondary prevention of VTE, and for the prevention of stroke in patients with non-valvular atrial fibrillation. Ximelagatran has also been tested for secondary thrombosis prophylaxis post-myocardial infarction/acute coronary syndrome (ACS).
Alanine aminotransferrase (ALAT) is an enzyme mostly expressed in the liver (EC 2.6.1.2). It is also called serum glutamate pyruvate transaminase (SGPT) or alanine transaminase (ALT). This enzyme is release into the plasma by liver cell death, which is a normal event. However, when liver cell death increases, ALAT levels rise above the normal range. The spill-over of this enzyme into blood is routinely measured as a marker of abnormal liver-cell damage. For example, alcoholic or viral hepatitis will increase ALAT levels, as will severe congestive heart failure. ALAT is also markedly raised in hepatitis and other acute liver damage. An elevated ALAT in the presence of normal levels of plasma alkaline phosphatase helps distinguish liver disease caused by liver-cell damage from diseases caused by problems in biliary ducts. Elevations of ALAT are normally measured in multiples of the upper limit of normal (ULN), with a reference range of 15-45 U/L in most laboratories. In 1987, in a study of 19,877 healthy Air Force recruits, only 99 (0.5%) had confirmed ALAT elevations (as reviewed in Green & Flamm (2002) Gastroenterology 123:1367-1384).
The increase in ALAT values with ximelagatran usually occurred within the first 6 months of treatment and were mainly asymptomatic. […] Subject to the future regulatory approval of ximelagatran, regular liver function testing (LFT) using an appropriate algorithm may be required if ximelagatran is used for treatment periods exceeding a month. […]

Chain of PON1 (P27169 whole entry): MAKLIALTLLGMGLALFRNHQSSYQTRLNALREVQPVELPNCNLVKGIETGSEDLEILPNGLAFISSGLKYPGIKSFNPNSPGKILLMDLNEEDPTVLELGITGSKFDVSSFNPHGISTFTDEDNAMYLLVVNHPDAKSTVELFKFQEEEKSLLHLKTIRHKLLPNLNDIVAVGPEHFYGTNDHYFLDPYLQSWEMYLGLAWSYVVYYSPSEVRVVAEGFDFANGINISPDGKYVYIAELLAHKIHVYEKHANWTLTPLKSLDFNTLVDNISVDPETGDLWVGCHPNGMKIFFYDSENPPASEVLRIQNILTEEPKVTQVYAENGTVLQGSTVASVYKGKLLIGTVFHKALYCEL

Row | SMILES | hydrolysis by PON1 (PON1) | patients exhibiting levels of alanine aminotransferase (ALAT) 3-fold or more above the upper limit of normal (≧3×ULN) ([1]; longer-term treatment (>35 days), 1.2% in the comparator groups) [%] | reversibility of ALAT increases ([1]; regardless of whether treatment was continued or discontinued) | time of occurrence of the increase in ALAT values ([1]; usually, of treatment, mainly asymptomatic) [months]
1 | CC[C@H](C)C(=O)O[C@H]1C[C@@H](C)C=C2C=C[C@H](C)[C@H](CC[C@@H]3C[C@@H](O)CC(=O)O3)[C@H]21 [lovastatin] | hydrolyzed by PON1 | – | – | –
2 | CCOC(=O)CN[C@@H](C(=O)N1CC[C@H]1C(=O)NCc1ccc(/C(N)=N\O)cc1)C1CCCCC1 [ximelagatran, EtOOC—CH2—(R)Cgl-Aze-Pab-OH] | – | 7.9 | reversible in most patients | ≤ 6
3 | CC(=O)S[C@@H]1CC2=CC(=O)CC[C@]2(C)[C@H]2CC[C@@]3(C)[C@@H](CC[C@@]34CCC(=O)O4)[C@H]12 [spironolactone] | hydrolyzed by PON1 | – | – | –
4 | CC[C@H](C)C(=O)O[C@H]1CCC=C2C=C[C@H](C)[C@H](CC[C@@H]3C[C@@H](O)CC(=O)O3)[C@H]21 [mevastatin] | hydrolyzed by PON1 | – | – | –
